Measurements: article PMC6269737, “Effect of Honokiol on Cytochrome P450 and UDP-Glucuronosyltransferase Enzyme Activities in Human Liver Microsomes” (Molecules, 2013)
“Also recorded” adds a separate entry of the source. Read-outs that look alike come from different tables or passages of the source.

How the values were obtained:
UGT1A9 = biological target: T1, UGT1A9 (Homo sapiens, UniProt O60656); assay: UGT1A9-catalyzed propofol glucuronidation inhibition in pooled human liver microsomes; assay type: in vitro ADME; conditions: pooled HLM (H161)
T1 sequence (O60656 26-530): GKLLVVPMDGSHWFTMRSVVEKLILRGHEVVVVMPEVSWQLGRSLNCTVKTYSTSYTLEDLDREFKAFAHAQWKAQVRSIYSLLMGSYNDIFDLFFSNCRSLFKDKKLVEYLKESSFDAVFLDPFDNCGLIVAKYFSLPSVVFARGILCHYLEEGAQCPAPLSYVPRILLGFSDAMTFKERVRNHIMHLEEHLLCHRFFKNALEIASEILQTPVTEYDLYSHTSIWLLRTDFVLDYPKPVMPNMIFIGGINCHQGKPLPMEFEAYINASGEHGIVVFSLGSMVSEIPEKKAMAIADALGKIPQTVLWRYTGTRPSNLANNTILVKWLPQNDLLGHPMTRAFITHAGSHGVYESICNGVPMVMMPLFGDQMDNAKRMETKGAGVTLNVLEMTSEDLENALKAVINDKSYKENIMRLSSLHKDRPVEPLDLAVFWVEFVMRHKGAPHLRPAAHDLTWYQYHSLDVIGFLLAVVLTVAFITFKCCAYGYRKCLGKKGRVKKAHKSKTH
Protocol: The inhibitory potency (IC50 value) of honokiol on UGT1A1-catalyzed 17β-estradiol 3-glucuronidation, UGT1A4-catalyzed trifluoperazine glucuronidation, UGT1A9-catalyzed propofol glucuronidation, and UGT2B7-catalyzed azidothymidine glucuronidation activities was determined in pooled human liver microsomes by LC-MS/MS [48]. […] Reactions were initiated by the addition of UDPGA (final concentration, 5 mM), and incubations were carried out at 37 °C in a shaking water bath for 30 min. Reactions were terminated by adding 100 μL of ice-cold methanol containing an internal standard (500 ng/mL ezetimibe for 17β-estradiol 3-glucuronide and propofol glucuronide; 30 ng/mL meloxicam for trifluoperazine glucuronide and azidothymidine glucuronide). The incubation mixtures were then centrifuged at 13,000 × g for 4 min, followed by dilution of 30 μL of the supernatant with 70 μL of water. An aliquot (5 μL) was injected onto the LC-MS/MS. All incubations were performed in triplicate and the mean values were used. Glucuronides produced from UGT isoform-specific substrates were determined by LC-MS/MS [49].
The incubation mixtures were then centrifuged at 13,000 × g for 4 min, after which 30 μL of the supernatant was diluted with 70 μL of water. Aliquots (5 μL) were then analyzed by LC-MS/MS.
(§1) The apparent kinetic parameters for inhibitory potential (Ki values) were estimated from the fitted curves using Enzyme Kinetics Ver. 1.1 software (Systat Software Inc.).

CYP2C9 = CYP2C9 (Homo sapiens, UniProt P11712); assay: biochemical; conditions: for IC50: IC50 (μM) of honokiol, Diclofenac 4-hydroxylation
Chain of CYP2C9 (P11712 whole entry): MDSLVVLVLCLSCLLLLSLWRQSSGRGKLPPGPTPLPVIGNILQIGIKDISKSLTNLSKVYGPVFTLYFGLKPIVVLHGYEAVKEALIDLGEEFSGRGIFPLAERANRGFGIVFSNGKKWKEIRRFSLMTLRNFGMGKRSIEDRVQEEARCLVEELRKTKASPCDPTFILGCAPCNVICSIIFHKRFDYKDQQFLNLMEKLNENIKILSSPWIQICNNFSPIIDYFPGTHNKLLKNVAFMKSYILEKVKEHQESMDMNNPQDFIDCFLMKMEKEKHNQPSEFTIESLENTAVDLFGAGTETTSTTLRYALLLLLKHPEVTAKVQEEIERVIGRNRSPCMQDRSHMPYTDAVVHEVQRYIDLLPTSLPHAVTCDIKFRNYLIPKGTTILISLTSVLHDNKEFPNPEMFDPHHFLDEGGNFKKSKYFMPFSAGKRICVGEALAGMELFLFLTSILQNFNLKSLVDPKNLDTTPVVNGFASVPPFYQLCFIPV
Protocol: (§2) The inhibitory potential (IC50 values) of honokiol on CYP activities was evaluated in pooled human liver microsomes using liquid chromatography-tandem mass spectrometry (LC-MS/MS). […] Honokiol was dissolved in acetonitrile. […] After a 3 min preincubation at 37 °C, the reactions were initiated by addition of an NADP generating system and incubated for 15 min at 37 °C in a shaking water bath. The reaction was then stopped by placement of the tubes on ice and adding 100 μL of ice-cold methanol containing internal standards (^13C2, ^15N-acetaminophen for acetaminophen and N-deethylamodiaquine, and d9-1-hydroxybufuralol for 4-hydroxydiclofenac, 4-hydroxybupropion, 7-hydroxycoumarin, 4-hydroxymephenytoin, 1'-hydroxybufuralol, and 1'-hydroxymidazolam). The incubation mixtures were then centrifuged at 13,000 × g for 4 min. All incubations were performed in triplicate, and average values were used.
(§3) The reaction was initiated by the addition of the cocktail containing seven CYP probe substrates and bupropion.
(§4) The metabolites formed from the seven CYP cocktail substrates were simultaneously determined according to our previously described LC-MS/MS method with minor modification; the concentration of 4-hydroxybupropion for CYP2B6 activity was quantified separately by LC-MS/MS. A tandem mass spectrometer (TSQ Quantum Access, Thermo Scientific, San Jose, CA, USA) coupled with a Nanospace SI-2 LC system (Tokyo, Japan) was used. The column and autosampler temperatures were 50 °C and 6 °C, respectively. The mass spectrometer was equipped with an electrospray ionization (ESI) source and operated in positive ion mode. The ESI source settings for ionization of the metabolites were as follows: capillary voltage, 4200 V; vaporizer temperature, 350 °C; capillary temperature 330 °C; sheath gas pressure, 35 psi; auxiliary gas pressure, 15 psi. Quantification was performed by selected reaction monitoring (SRM) of [M+H]^+ ions and the related product ions for each metabolite. […] Analytical data were processed using Xcalibur® software (Thermo Scientific).
(§5) The incubation mixtures were centrifuged at 13,000 × g for 4 min, and the supernatants were diluted as follows: dilution of 20 μL supernatant with 180 μL of 25% methanol for CYP2C8; dilution of 50 μL supernatant with 50 μL of water for CYP2C9, CYP2C19, CYP2D6, and CYP1A2; and dilution of 20 μL supernatant with 80 μL of water for CYP2B6. Aliquots (5 μL) of the diluted supernatants were then analyzed by LC-MS/MS.
as §1

CYP2C19 = CYP2C19 (Homo sapiens, UniProt P33261); assay: biochemical; conditions: for IC50: IC50 (μM) of honokiol, S-Mephenytoin 4'-hydroxylation
Chain of CYP2C19 (P33261 whole entry): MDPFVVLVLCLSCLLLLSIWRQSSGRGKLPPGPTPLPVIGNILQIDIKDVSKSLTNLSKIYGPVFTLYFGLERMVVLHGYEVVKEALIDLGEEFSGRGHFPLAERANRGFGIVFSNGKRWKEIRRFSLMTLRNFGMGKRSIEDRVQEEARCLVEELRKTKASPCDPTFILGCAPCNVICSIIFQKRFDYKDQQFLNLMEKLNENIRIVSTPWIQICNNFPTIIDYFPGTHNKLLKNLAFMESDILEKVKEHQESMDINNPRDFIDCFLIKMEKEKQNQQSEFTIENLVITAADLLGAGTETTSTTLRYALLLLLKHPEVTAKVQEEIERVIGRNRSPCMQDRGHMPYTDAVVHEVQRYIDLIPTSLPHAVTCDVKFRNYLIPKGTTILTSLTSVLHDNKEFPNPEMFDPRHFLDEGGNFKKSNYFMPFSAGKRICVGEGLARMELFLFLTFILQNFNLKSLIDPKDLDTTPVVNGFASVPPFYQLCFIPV
Protocol: as §2, §3, §4, §5, §1

CYP2D6 = CYP2D6 (Homo sapiens, UniProt P10635); assay: biochemical; conditions: for IC50: IC50 (μM) of honokiol, Bufuralol 1'-hydroxylation
Chain of CYP2D6 (P10635 whole entry): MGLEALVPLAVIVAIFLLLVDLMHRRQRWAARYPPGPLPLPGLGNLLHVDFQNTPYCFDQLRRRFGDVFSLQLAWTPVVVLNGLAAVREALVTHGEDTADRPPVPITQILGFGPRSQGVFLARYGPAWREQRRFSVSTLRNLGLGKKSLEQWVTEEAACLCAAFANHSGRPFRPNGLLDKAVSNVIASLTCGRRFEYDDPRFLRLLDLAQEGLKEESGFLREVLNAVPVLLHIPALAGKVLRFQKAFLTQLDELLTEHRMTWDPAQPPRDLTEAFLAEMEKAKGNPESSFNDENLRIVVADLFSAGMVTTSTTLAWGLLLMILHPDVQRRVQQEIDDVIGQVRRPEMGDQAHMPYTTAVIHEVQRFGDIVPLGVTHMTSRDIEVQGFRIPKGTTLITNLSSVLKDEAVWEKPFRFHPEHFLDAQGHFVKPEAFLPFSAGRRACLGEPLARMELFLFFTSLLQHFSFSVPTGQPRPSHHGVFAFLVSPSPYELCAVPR
Protocol: as §2, §3, §4, §5, §1

CYP1A2 = biological target: T2, CYP1A2 (Homo sapiens, UniProt P05177); assay: CYP1A2-catalyzed phenacetin O-deethylation inhibition in pooled human liver microsomes (LC-MS/MS); assay type: in vitro ADME
T2 sequence (P05177 1-516): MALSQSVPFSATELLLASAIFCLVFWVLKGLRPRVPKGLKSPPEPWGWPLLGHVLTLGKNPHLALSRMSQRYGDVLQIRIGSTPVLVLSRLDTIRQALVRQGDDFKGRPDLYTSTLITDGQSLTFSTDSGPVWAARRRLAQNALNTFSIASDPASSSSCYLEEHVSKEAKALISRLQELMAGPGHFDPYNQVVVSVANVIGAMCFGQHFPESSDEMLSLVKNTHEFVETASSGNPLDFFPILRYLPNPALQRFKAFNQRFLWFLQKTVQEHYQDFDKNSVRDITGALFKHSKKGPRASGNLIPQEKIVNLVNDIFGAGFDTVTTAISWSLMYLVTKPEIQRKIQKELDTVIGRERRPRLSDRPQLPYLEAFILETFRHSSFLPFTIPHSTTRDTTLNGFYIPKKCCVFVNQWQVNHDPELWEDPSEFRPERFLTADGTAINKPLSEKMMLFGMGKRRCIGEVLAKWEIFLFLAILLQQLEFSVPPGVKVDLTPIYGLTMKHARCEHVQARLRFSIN
Protocol: as §2, §3, §4, §5, §1

[1] = with preincubation, 30 min preincubation with NADPH

C=CCc1ccc(O)c(-c2ccc(O)c(CC=C)c2)c1 [honokiol, 2-(4-hydroxy-3-prop-2-enyl-phenyl)-4-prop-2-enyl-phenol]
Ki (UGT1A9; Propofol glucuronidation, 5–40 μM propofol): 300 nM
Inhibition mode (UGT1A9; Propofol glucuronidation): competitive
IC50 at 30 min (UGT1A9; human, pooled human liver microsomes, pH 7.4, probe propofol (10 μM), propofol glucuronidation, 10 μM propofol): 960 nM
IC50 (UGT1A9; propofol glucuronidation, 10 μM propofol): 980 nM
Ki (CYP2C9): 540 nM
IC50 (CYP2C9; no preincubation, 10 μM diclofenac, pooled HLM (H161)): 4.1 µM
IC50 (CYP2C9; [1]): 3.9 µM
Ki (CYP2C19): 570 nM
IC50 (CYP2C19; no preincubation, 100 μM [S]-mephenytoin, pooled HLM (H161)): 2.2 µM
IC50 (CYP2C19; [1]): 2.9 µM
Ki (CYP2D6): 12000 nM
IC50 (CYP2D6; no preincubation, 5.0 μM bufuralol, pooled HLM (H161)): 14 µM
IC50 (CYP2D6; [1]): 38.1 µM
IC50 (CYP1A2; 50 μM phenacetin (cocktail), pooled human liver microsomes (H161), read-out: IC50 (μM) of honokiol, no preincubation): 2.1 µM
Ki (CYP1A2; 10–80 μM phenacetin, pooled HLM (H161)): 1200 nM
IC50 (CYP1A2; 30 min preincubation in the presence of NADPH, pooled HLM (H161), read-out: IC50 (μM) of honokiol, with preincubation): 4.7 µM
Inhibition mode (CYP1A2; pooled HLM (H161)): noncompetitively; also recorded: noncompetitive
